# Results reported in patent publication US20250230193A1, “CYCLIC COMPOUND HAVING SELECTIVE KRAS INHIBITORY EFFECT ON HRAS AND NRAS” (CHUGAI SEIYAKU KABUSHIKI KAISHA, priority 2022, published 2025).
# Where a SMILES comes first, the peptide text is derived from it. Bridges are numbered along the chain shown (N, C = ends). [ ]: non-standard residue; d: D form. The star is where a group is joined. hPhe(3-Cl-4-CF3) = N[C@@H](CCc1ccc(C(F)(F)F)c(Cl)c1)C(=O)O; NPrPhe(4-CF3) = CCCN[C@@H](Cc1ccc(C(F)(F)F)cc1)C(=O)O; Morpholine(3S-CO) = O=C(O)[C@@H]1COCCN1; NMeGly(cPent) = CN[C@H](C(=O)O)C1CCCC1; Hyp = O=C(O)[C@@H]1C[C@@H](O)CN1; NMeD = CN[C@@H](CC(=O)O)C(=O)O; NMeL = CN[C@@H](CC(C)C)C(=O)O; Morpholide = C1CN(*)CCO1; Ac5c = NC1(C(=O)O)CCCC1; Aze = O=C(O)[C@@H]1CCN1; Ac4c = NC1(C(=O)O)CCC1; NPrGly = CCCNCC(=O)O; NEtG = CCNCC(=O)O; Sar = CNCC(=O)O
# Legend:
# [1] = target: GDP-bound NRAS wild-type protein (Homo sapiens, UniProt P01111); test: Binding to NRAS by surface plasmon resonance (SPR), Single Cycle Kinetics; details: for NRAS/KRAS (ratio of KD value for NRAS to KD value for KRAS) / NRAS/KRAS (ratio of KD value with respect to NRAS to KD value with respect to KRAS): GDP-bound NRAS wild-type vs GDP-bound KRAS wild-type
# Sequence of GDP-bound NRAS wild-type protein (P01111 whole entry): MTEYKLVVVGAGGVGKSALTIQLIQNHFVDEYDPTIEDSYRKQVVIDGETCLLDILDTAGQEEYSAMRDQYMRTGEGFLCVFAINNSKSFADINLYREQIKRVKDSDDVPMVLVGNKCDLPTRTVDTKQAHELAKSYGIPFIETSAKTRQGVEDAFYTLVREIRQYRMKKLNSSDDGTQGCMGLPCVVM
# [2] = target: GDP-bound HRAS wild-type protein (Homo sapiens, UniProt P01112); test: Binding to HRAS by surface plasmon resonance (SPR), Single Cycle Kinetics; details: for HRAS/KRAS (ratio of KD value for HRAS to KD value for KRAS) / HRAS/KRAS (ratio of KD value with respect to HRAS to KD value with respect to KRAS): GDP-bound HRAS wild-type vs GDP-bound KRAS wild-type
# Sequence of GDP-bound HRAS wild-type protein (P01112 whole entry): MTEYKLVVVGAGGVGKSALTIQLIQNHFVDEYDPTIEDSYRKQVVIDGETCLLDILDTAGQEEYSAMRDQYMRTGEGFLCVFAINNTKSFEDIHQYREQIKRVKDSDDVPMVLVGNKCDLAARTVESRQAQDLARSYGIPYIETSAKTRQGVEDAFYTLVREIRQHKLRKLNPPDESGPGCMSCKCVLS
compound,measurement,setting,value
CCC[C@H]1C(=O)N[C@@H]([C@@H](C)CC)C(=O)N(C)CC(=O)N(C)[C@H]2C/C=C\CCN(C2=O)[C@@H](Cc2ccc(C)cc2)C(=O)N(C)CC(=O)N[C@@H](CCc2cc(F)c(C(F)F)c(F)c2)C(=O)N2C[C@H](OCC)C[C@H]2C(=O)NC2(CC(C)(C)C2)C(=O)N(C)[C@@H](C2CCCC2)C(=O)N(C)[C@H](C(=O)N(C)C)CC(=O)N1C [PP2782],NRAS/KRAS (ratio of KD value with respect to GDP-bound NRAS wild-type protein to KD value with respect to KRAS),[1]; class symbols,A (a compound having 10 or more and less than 20 is denoted as A)
same,HRAS/KRAS (ratio of KD value with respect to GDP-bound HRAS wild-type protein to KD value with respect to KRAS),[2]; class symbols,A (a compound having 10 or more and less than 20 is denoted as A)
CCCN1CC(=O)NC2(CCCC2)C(=O)N(C)[C@@H](C2CCCC2)C(=O)N(C)[C@H](C(=O)N2CCOCC2)CC(=O)N(C)[C@@H](CC(C)C)C(=O)N[C@@H]([C@@H](C)CC)C(=O)N2CC[C@H]2C(=O)N(C)CC(=O)N(CCC)[C@@H](Cc2ccc(C(F)(F)F)cc2)C(=O)N(C)CC(=O)N[C@@H](CCc2ccc(C(F)(F)F)c(Cl)c2)C1=O [PP0315] ([NMeL]I[Aze][Sar][NPrPhe(4-CF3)][Sar][hPhe(3-Cl-4-CF3)][NPrGly][Ac5c][NMeGly(cPent)][NMeD]-Morpholide; lactam N-11),NRAS/KRAS (ratio of KD for GDP-bound NRAS wild-type to KD for KRAS),[1]; SPR,B (a compound having 3 or more and less than 10 is denoted as B)
same,HRAS/KRAS (ratio of KD for GDP-bound HRAS wild-type to KD for KRAS),[2]; SPR,B (a compound having 3 or more and less than 10 is denoted as B)
CCCN1C(=O)CN(C)C(=O)CN(C)C(=O)[C@H]([C@@H](C)CC)NC(=O)[C@H](CC(C)C)N(C)C(=O)C[C@@H](C(=O)N2CCOCC2)N(C)C(=O)[C@H](C2CCCC2)N(C)C(=O)C2(CCC2)NC(=O)[C@@H]2CCCN2C(=O)[C@H](CCc2ccc(C(F)(F)F)c(Cl)c2)NC(=O)CN(CC)C(=O)[C@@H]1Cc1ccc(C(F)(F)F)cc1 [PP1950] ([NMeL]I[Sar][Sar][NPrPhe(4-CF3)][NEtG][hPhe(3-Cl-4-CF3)]P[Ac4c][NMeGly(cPent)][NMeD]-Morpholide; lactam N-11),NRAS/KRAS (ratio of KD value for NRAS to KD value for KRAS),"[1]; KD ratio, SPR",B (a compound having 3 or more and less than 10 is denoted as B)
same,HRAS/KRAS (ratio of KD value for HRAS to KD value for KRAS),"[2]; KD ratio, SPR",C (A compound having a KD ratio of 0.1 or more and less than 3 is denoted as C)
CCO[C@@H]1C[C@H]2C(=O)NC3(CCC3)C(=O)N(C)[C@@H](C3CCCC3)C(=O)N(CCC3CCCC3)[C@H](C(=O)N3CCOCC3)CC(=O)N(C)[C@@H](CC)C(=O)N[C@@H]([C@@H](C)CC)C(=O)N(C)CC(=O)N(C)[C@H]3C/C=C\CCN(C3=O)[C@@H](Cc3ccc(C(F)(F)F)cc3)C(=O)N(C)CC(=O)N[C@@H](CCc3cc(F)c(C(F)(F)F)c(F)c3)C(=O)N2C1 [PP0981],NRAS/KRAS (ratio of KD value with respect to NRAS to KD value with respect to KRAS),"[1]; KD ratio, SPR",AA (a compound having 20 or more is denoted as AA)
same,HRAS/KRAS (ratio of KD value with respect to HRAS to KD value with respect to KRAS),"[2]; KD ratio, SPR",A (a compound having 10 or more and less than 20 is denoted as A)
CCO[C@@H]1C[C@H]2C(=O)NC3(CCCC3)C(=O)N(C)[C@@H](C3CCCC3)C(=O)N(C)[C@H](C(=O)N(C)C)CC(=O)N(C)[C@@H](CC(C)C)C(=O)N[C@@H]([C@@H](C)CC)C(=O)N(C)CC(=O)N(C)[C@H]3C/C=C\CCN(C3=O)[C@@H](Cc3ccc(C(F)(F)F)cc3)C(=O)N(C)CC(=O)N[C@@H](CCc3cc(F)c(C(F)(F)F)c(F)c3)C(=O)N2C1 [PP1105],NRAS/KRAS (ratio of KD value with respect to NRAS to KD value with respect to KRAS),"[1]; KD ratio, SPR",A (a compound having 10 or more and less than 20 is denoted as A)
same,HRAS/KRAS (ratio of KD value with respect to HRAS to KD value with respect to KRAS),"[2]; KD ratio, SPR",A (a compound having 10 or more and less than 20 is denoted as A)
CCC[C@H]1C(=O)N[C@@H]([C@@H](C)CC)C(=O)N(C)CC(=O)N(C)[C@H]2C/C=C\CCN(C2=O)[C@@H](Cc2ccc(C)cc2)C(=O)N(C)CC(=O)N[C@@H](CCc2ccc(C(F)(F)F)c(OC)c2)C(=O)N2C[C@@H](C)C[C@H]2C(=O)NC2(CCC2)C(=O)N(C)[C@@H](C2CCCC2)C(=O)N(C)[C@H](C(=O)N(C)CC)CC(=O)N1C [PP1840],NRAS/KRAS (ratio of KD value for NRAS to KD value for KRAS),"[1]; KD ratio, SPR",A (a compound having 10 or more and less than 20 is denoted as A)
same,HRAS/KRAS (ratio of KD value for HRAS to KD value for KRAS),"[2]; KD ratio, SPR",B (a compound having 3 or more and less than 10 is denoted as B)
CCC[C@H]1C(=O)N[C@@H]([C@@H](C)CC)C(=O)N(C)CC(=O)N(C)[C@H]2C/C=C\CCN(C2=O)[C@@H](Cc2ccc(C)cc2)C(=O)N(C)CC(=O)N[C@@H](CCc2ccc(Cl)c(C(F)(F)F)c2)C(=O)N2C[C@H](OCC)C[C@H]2C(=O)NC2(CC(C)(C)C2)C(=O)N(C)[C@@H](C(CC)CC)C(=O)N(C)[C@H](C(=O)N(C)C)CC(=O)N1C [PP2787],NRAS/KRAS (ratio of KD value with respect to GDP-bound NRAS wild-type protein to KD value with respect to KRAS),[1]; class symbols,AA (a compound having 20 or more is denoted as AA)
same,HRAS/KRAS (ratio of KD value with respect to GDP-bound HRAS wild-type protein to KD value with respect to KRAS),[2]; class symbols,A (a compound having 10 or more and less than 20 is denoted as A)
CCCN1C(=O)[C@@H]2CCN2C(=O)CN(C)C(=O)[C@H]([C@@H](C)CC)NC(=O)[C@H](CC(C)C)N(C)C(=O)C[C@@H](C(=O)N2CCOCC2)N(C)C(=O)[C@H](C2CCCC2)N(C)C(=O)C2(CCC2)NC(=O)[C@@H]2C[C@@H](OCC)CN2C(=O)[C@H](CCc2ccc(C(F)(F)F)c(Cl)c2)NC(=O)CN(C)C(=O)[C@@H]1Cc1ccc(C(F)(F)F)cc1 [PP0411] ([NMeL]I[Sar][Aze][NPrPhe(4-CF3)][Sar][hPhe(3-Cl-4-CF3)][Hyp](Et)[Ac4c][NMeGly(cPent)][NMeD]-Morpholide; lactam N-11),NRAS/KRAS (ratio of KD value with respect to GDP-bound NRAS wild-type protein to KD value with respect to KRAS),[1]; SPR,C (A compound having a KD ratio of 0.1 or more and less than 3 is denoted as C)
same,HRAS/KRAS (ratio of KD value with respect to GDP-bound HRAS wild-type protein to KD value with respect to KRAS),[2]; SPR,C (A compound having a KD ratio of 0.1 or more and less than 3 is denoted as C)
CCCN1C(=O)CN(C)C(=O)[C@@H]2CCN2C(=O)[C@H]([C@@H](C)CC)NC(=O)[C@H](CC(C)C)N(C)C(=O)C[C@@H](C(=O)N2CCOCC2)N(C)C(=O)[C@H](C2CCCC2)N(C)C(=O)C2(CCCC2)NC(=O)[C@@H]2COCCN2C(=O)[C@H](CCc2ccc(C(F)(F)F)c(Cl)c2)NC(=O)CN(C)C(=O)[C@@H]1Cc1ccc(C(F)(F)F)cc1 [PP0313] ([NMeL]I[Aze][Sar][NPrPhe(4-CF3)][Sar][hPhe(3-Cl-4-CF3)][Morpholine(3S-CO)][Ac5c][NMeGly(cPent)][NMeD]-Morpholide; lactam N-11),NRAS/KRAS (ratio of KD for GDP-bound NRAS wild-type to KD for KRAS),[1]; SPR,B (a compound having 3 or more and less than 10 is denoted as B)
same,HRAS/KRAS (ratio of KD for GDP-bound HRAS wild-type to KD for KRAS),[2]; SPR,C (A compound having a KD ratio of 0.1 or more and less than 3 is denoted as C)
CCO[C@@H]1C[C@H]2C(=O)NC3(CC(C)(C)C3)C(=O)N(C)[C@@H](C(CC)CC)C(=O)N(C)[C@H](C(=O)N(C)C)CC(=O)N(C)[C@@H](CC3CC3)C(=O)N[C@@H]([C@@H](C)CC)C(=O)N(C)CC(=O)N(C)[C@H]3C/C=C\CCN(C3=O)[C@@H](Cc3ccc(C)cc3)C(=O)N(C)CC(=O)N[C@@H](CCc3ccc(C(F)(F)F)c(Cl)c3)C(=O)N2C1 [PP2142],NRAS/KRAS (ratio of KD value with respect to NRAS to KD value with respect to KRAS),[1]; SPR,AA (a compound having 20 or more is denoted as AA)
same,HRAS/KRAS (ratio of KD value with respect to HRAS to KD value with respect to KRAS),[2]; SPR,A (a compound having 10 or more and less than 20 is denoted as A)
CCO[C@@H]1C[C@H]2C(=O)NC3(CC(F)(F)C3)C(=O)N(C)[C@@H](C(CC)CC)C(=O)N3CCC[C@@H]3CC(=O)N(C)[C@@H](CC)C(=O)N[C@@H]([C@@H](C)CC)C(=O)N(C)CC(=O)N(C)[C@H]3C/C=C\CCN(C3=O)[C@@H](Cc3ccc(C(F)(F)F)cc3)C(=O)N(C)CC(=O)N[C@@H](CCc3cc(F)c(C(F)(F)F)c(F)c3)C(=O)N2C1 [PP1608],NRAS/KRAS (ratio of KD value for NRAS to KD value for KRAS),"[1]; KD ratio, SPR",A (a compound having 10 or more and less than 20 is denoted as A)
same,HRAS/KRAS (ratio of KD value for HRAS to KD value for KRAS),"[2]; KD ratio, SPR",A (a compound having 10 or more and less than 20 is denoted as A)
